Results on 13 molecules are retold here after patent US20260070945A1, “MACROCYCLIC IMMUNOMODULATORS” (Bristol-Myers Squibb Company, priority 2022, published 2026).

SMILES strings stand for the structures. *1 amine or outer side, *2 acyl side, *3 side chain or, on linkers, in order; H or OH if unused. Where a SMILES comes first, the peptide text is derived from it. Bridges are numbered along the chain shown (N, C = ends). [ ]: non-standard residue; d: D form. The star is where a group is joined. ξ: configuration not given here. Phe(4-COOH) = N[C@@H](Cc1ccc(C(=O)O)cc1)C(=O)O; Bip = N[C@@H](Cc1ccc(-c2ccccc2)cc1)C(=O)O; Phe(3-Me) = Cc1cccc(C[C@H](N)C(=O)O)c1; Cha = N[C@@H](CC1CCCCC1)C(=O)O; Cit = NC(=O)NCCC[C@H](N)C(=O)O; Ile(3ξ) = CCC(C)[C@H](N)C(=O)O; NMeN = CN[C@@H](CC(N)=O)C(=O)O; Thr(3ξ) = CC(O)[C@H](N)C(=O)O; CH2COCH2 = O=C(C[*:1])C[*:2]; hSer = N[C@@H](CCO)C(=O)O; Carboxymethyl = O=C(O)C*; NMeA = CN[C@@H](C)C(=O)O; Orn = NCCC[C@H](N)C(=O)O; Aun = NCCCCCCCCCCC(=O)O; Dab = NCC[C@H](N)C(=O)O; AEEA = NCCOCCOCC(=O)O; ξV = CC(C)C(N)C(=O)O

T1 sequence (Q15116 25-288): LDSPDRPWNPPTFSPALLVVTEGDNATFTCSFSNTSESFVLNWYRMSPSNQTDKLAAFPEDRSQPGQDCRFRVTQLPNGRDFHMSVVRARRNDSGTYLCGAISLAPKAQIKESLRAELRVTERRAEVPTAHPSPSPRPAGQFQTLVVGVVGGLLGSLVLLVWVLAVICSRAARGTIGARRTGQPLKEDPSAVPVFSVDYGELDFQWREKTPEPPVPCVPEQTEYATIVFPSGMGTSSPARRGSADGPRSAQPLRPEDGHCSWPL

This assay concerns the target T1, PD-1/PD-L1 interaction (PE-labeled human PD-L1-Ig binding to Jurkat cell line over-expressing human PD-1) (Homo sapiens, UniProt Q15116).
T1 construct: expressed in transfected cells; host or cells: Jurkat
The assay can be described thus: Jurkat-PD-1 Cell Binding High-Content Screening Assay (CBA). To be noted: Jurkat-hPD-1 cells, PE-labeled PD-L1-Ig 20 nM final; read-out: Jurkat HPD1 PDL1 IC50. In outline:
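Compound is added first to the PD-1-expressing Jurkat cells and held 2 h at 37 °C in serum-containing DMEM. The fluorescent PD-L1 fusion follows at 20 nM final for 1 h. Fixed, Hoechst-stained cells are then imaged for bound label.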
For the molecule `CCC(C)[C@@H]1NC(=O)[C@H](Cc2ccc(-c3ccccc3)cc2)NC(=O)[C@H](CC(C)C)NC(=O)[C@H](Cc2c[nH]c3ccccc23)NC(=O)[C@H](CC(=O)O)NC(=O)[C@H](Cc2ccc(C(=O)O)cc2)NC(=O)[C@H](Cc2ccc(OCC(=O)O)cc2)NC(=O)CSC[C@@H](C(=O)NCCCCCCCCCCC(=O)O)NC(=O)[C@H](CCCNC(=N)N)NC(=O)[C@H](C(C)C)NC(=O)[C@H](CC2CCCCC2)NC(=O)[C@H](CCN)NC(=O)[C@@H](CC(C)C)NC(=O)[C@H](C)N(C)C1=O` (stereo partly drawn) [Example 2237] ({CH2CO}-Y(Carboxymethyl)[Phe(4-COOH)]DWL[Bip][Ile(3ξ)][NMeA][dL][Dab][Cha]VRC[Aun]-OH; thioether N-14), the IC50 turned out to be 15 nM. To `CCC(C)[C@@H]1NC(=O)[C@H](Cc2ccc(-c3ccccc3)cc2)NC(=O)[C@H](C(C)C)NC(=O)[C@H](Cc2c[nH]c3ccccc23)NC(=O)[C@H](CC(=O)O)NC(=O)[C@H](Cc2ccc(OCC(=O)O)cc2)NC(=O)[C@H](Cc2ccc(OCC(=O)O)cc2)NC(=O)CSC[C@@H](C(=O)N[C@H](CC(N)=O)C(=O)NCCCCCCCCCCC(=O)O)NC(=O)[C@H](CCCCN)NC(=O)[C@H](C(C)C)NC(=O)[C@H](CC2CCCCC2)NC(=O)[C@H](CCN)NC(=O)[C@@H](CC(C)C)NC(=O)[C@H](C)N(C)C1=O` (stereo partly drawn) [Example 2239] ({CH2CO}-Y(Carboxymethyl)Y(Carboxymethyl)DWV[Bip][Ile(3ξ)][NMeA][dL][Dab][Cha]VKC[dN][Aun]-OH; thioether N-14) belongs 6 nM; to `Cc1cccc(C[C@@H]2NC(=O)[C@H](CC(=O)O)NC(=O)[C@H](Cc3ccc(OCC(=O)O)cc3)NC(=O)[C@H](C(C)O)NC(=O)CSC[C@@H](C(=O)N[C@H](CC(N)=O)C(=O)NCCCCCCCCCCC(=O)O)NC(=O)[C@H](CCCN)NC(=O)[C@H](C(C)C)NC(=O)[C@H](CC3CCCCC3)NC(=O)[C@H](CCN)NC(=O)[C@@H](CC(C)C)NC(=O)[C@H](C)N(C)C(=O)[C@H](Cc3ccc(O)cc3)NC(=O)[C@H](Cc3ccc(-c4ccccc4)cc3)NC(=O)[C@H](C(C)C)NC2=O)c1` (stereo partly drawn) [Example 2241] ({CH2CO}-[Thr(3ξ)]Y(Carboxymethyl)D[Phe(3-Me)]V[Bip]Y[NMeA][dL][Dab][Cha]V[Orn]C[dN][Aun]-OH; thioether N-14), 10.2 nM. The value for `CC(C)C[C@H]1NC(=O)[C@H](C)N(C)C(=O)[C@H](Cc2ccc(O)cc2)NC(=O)[C@H](Cc2ccc(-c3ccccc3)cc2)NC(=O)[C@H](C(C)C)NC(=O)[C@H](Cc2c[nH]c3ccccc23)NC(=O)[C@H](CC(=O)O)NC(=O)[C@H](Cc2ccc(OCC(=O)O)cc2)NC(=O)[C@H](C(C)O)NC(=O)CSC[C@@H](C(=O)N[C@H](CC(N)=O)C(=O)NCCCCCCCCCCC(=O)O)NC(=O)[C@H](CCCN)NC(=O)[C@H](C(C)C)NC(=O)[C@H](CC2CCCCC2)NC(=O)[C@H](CCN)NC1=O` (stereo partly drawn) [Example 2242] ({CH2CO}-[Thr(3ξ)]Y(Carboxymethyl)DWV[Bip]Y[NMeA][dL][Dab][Cha]V[Orn]C[dN][Aun]-OH; thioether N-14) was 114 nM; that for `CC(C)C[C@H]1NC(=O)[C@H](CC(N)=O)N(C)C(=O)[C@H](C(C)C)NC(=O)[C@H](Cc2ccc(-c3ccccc3)cc2)NC(=O)[C@H](C(C)C)NC(=O)[C@H](Cc2c[nH]c3ccccc23)NC(=O)[C@H](CC(=O)O)NC(=O)[C@H](Cc2ccc(OCC(=O)O)cc2)NC(=O)[C@H](C(C)O)NC(=O)CSC[C@@H](C(=O)N[C@@H](CCN)C(=O)NCCCCCCCCCCC(=O)O)NC(=O)[C@H](C(C)O)NC(=O)[C@H](C(C)C)NC(=O)[C@H](CC2CCCCC2)NC(=O)[C@H](CCN)NC1=O` (stereo partly drawn) [Example 2243] ({CH2CO}-[Thr(3ξ)]Y(Carboxymethyl)DWV[Bip]V[NMeN][dL][Dab][Cha]V[Thr(3ξ)]C[Dab][Aun]-OH; thioether N-14) was 26 nM. Consider `CC(C)C[C@@H]1NC(=O)[C@H](Cc2c[nH]c3ccccc23)NC(=O)[C@H](CC(=O)O)NC(=O)[C@H](Cc2ccc(C(=O)O)cc2)NC(=O)[C@H](Cc2ccc(OCC(=O)O)cc2)NC(=O)CSC[C@@H](C(=O)NCCOCCOCC(=O)NCCCCCCCCCCC(=O)O)NC(=O)[C@H](CCO)NC(=O)[C@H](C(C)C)NC(=O)[C@H](CC2CCCCC2)NC(=O)[C@H](CCN)NC(=O)[C@@H](CC(C)C)NC(=O)[C@H](C)N(C)C(=O)[C@H](CCC(N)=O)NC(=O)[C@H](Cc2ccc(-c3ccccc3)cc2)NC1=O` [Example 2244] ({CH2CO}-Y(Carboxymethyl)[Phe(4-COOH)]DWL[Bip]Q[NMeA][dL][Dab][Cha]V[hSer]C[AEEA][Aun]-OH; thioether N-14), for which the half-inhibitory concentration (IC50) was found to be 38.6 nM. The value for `Cc1cccc(C[C@@H]2NC(=O)[C@H](CC(=O)O)NC(=O)[C@H](Cc3ccc(C(=O)O)cc3)NC(=O)[C@H](Cc3ccc(OCC(=O)O)cc3)NC(=O)CSC[C@@H](C(=O)NCCCCCCCCCCC(=O)O)NC(=O)[C@H](CCCNC(N)=O)NC(=O)[C@H](C(C)C)NC(=O)[C@H](CC3CCCCC3)NC(=O)[C@H](CCN)NC(=O)[C@@H](CC(C)C)NC(=O)[C@H](C)N(C)C(=O)[C@H](CC(C)C)NC(=O)[C@H](Cc3ccc(-c4ccccc4)cc3)NC(=O)[C@H](CC(C)C)NC2=O)c1` [Example 2245] ({CH2CO}-Y(Carboxymethyl)[Phe(4-COOH)]D[Phe(3-Me)]L[Bip]L[NMeA][dL][Dab][Cha]V[Cit]C[Aun]-OH; thioether N-14) was 25 nM; that for `Cc1cccc(C[C@@H]2NC(=O)[C@H](CC(=O)O)NC(=O)[C@H](Cc3ccc(C(=O)O)cc3)NC(=O)[C@H](Cc3ccc(OCC(=O)O)cc3)NC(=O)CSC[C@@H](C(=O)NCCCCCCCCCCC(=O)O)NC(=O)[C@H](CCCNC(N)=O)NC(=O)[C@H](C(C)C)NC(=O)[C@H](CC3CCCCC3)NC(=O)[C@H](CCN)NC(=O)[C@@H](CC(C)C)NC(=O)[C@H](C)N(C)C(=O)[C@H](CCC(N)=O)NC(=O)[C@H](Cc3ccc(-c4ccccc4)cc3)NC(=O)[C@H](CC(C)C)NC2=O)c1` [Example 2246] ({CH2CO}-Y(Carboxymethyl)[Phe(4-COOH)]D[Phe(3-Me)]L[Bip]Q[NMeA][dL][Dab][Cha]V[Cit]C[Aun]-OH; thioether N-14) was 16.1 nM. As for `CC(=O)NCCCC[C@@H]1NC(=O)[C@H](Cc2ccc(-c3ccccc3)cc2)NC(=O)[C@H](CC(C)C)NC(=O)[C@H](Cc2cccc(C)c2)NC(=O)[C@H](CC(=O)O)NC(=O)[C@H](Cc2ccc(C(=O)O)cc2)NC(=O)[C@H](Cc2ccc(OCC(=O)O)cc2)NC(=O)CSC[C@@H](C(=O)NCCCCCCCCCCC(=O)O)NC(=O)[C@H](CCCNC(N)=O)NC(=O)[C@H](C(C)C)NC(=O)[C@H](CC2CCCCC2)NC(=O)[C@H](CCN)NC(=O)[C@@H](CC(C)C)NC(=O)[C@H](C)N(C)C1=O` [Example 2247] ({CH2CO}-Y(Carboxymethyl)[Phe(4-COOH)]D[Phe(3-Me)]L[Bip]K(Ac)[NMeA][dL][Dab][Cha]V[Cit]C[Aun]-OH; thioether N-14), the half-maximal inhibitory concentration (IC50) is 4.9 nM.

In the case of `Cc1cccc(C[C@@H]2NC(=O)[C@H](CC(=O)O)NC(=O)[C@H](Cc3ccc(OCC(=O)O)cc3)NC(=O)[C@H](CC(N)=O)NC(=O)CSC[C@@H](C(=O)NCCCCCCCCCCC(=O)O)NC(=O)[C@H](CCCNC(N)=O)NC(=O)[C@H](C(C)C)NC(=O)[C@H](CC3CCCCC3)NC(=O)[C@H](CCN)NC(=O)[C@@H](CC(C)C)NC(=O)[C@H](C)N(C)C(=O)C(C(C)C)NC(=O)[C@H](Cc3ccc(-c4ccccc4)cc3)NC(=O)[C@H](CC(C)C)NC2=O)c1` (stereo partly drawn) [Example 2248] ({CH2CO}-NY(Carboxymethyl)D[Phe(3-Me)]L[Bip][ξV][NMeA][dL][Dab][Cha]V[Cit]C[Aun]-OH; thioether N-14), the IC50 came out at 11 nM.

For `Cc1cccc(C[C@@H]2NC(=O)[C@H](CC(=O)O)NC(=O)[C@H](Cc3c[nH]cn3)NC(=O)[C@H](Cc3ccc(OCC(=O)O)cc3)NC(=O)CSC[C@@H](C(=O)NCCCCCCCCCCC(=O)O)NC(=O)[C@H](CCC(N)=O)NC(=O)[C@H](C(C)C)NC(=O)[C@H](CC3CCCCC3)NC(=O)[C@H](CCN)NC(=O)[C@@H](CC(C)C)NC(=O)[C@H](C)N(C)C(=O)[C@H](Cc3ccc(O)cc3)NC(=O)[C@H](Cc3ccc(-c4ccccc4)cc3)NC(=O)[C@H](CC(C)C)NC2=O)c1` [Example 2251] ({CH2CO}-Y(Carboxymethyl)HD[Phe(3-Me)]L[Bip]Y[NMeA][dL][Dab][Cha]VQC[Aun]-OH; thioether N-14), the IC50 was 169 nM. The value for `Cc1cccc(C[C@@H]2NC(=O)[C@H](CC(=O)O)NC(=O)[C@H](Cc3c[nH]cn3)NC(=O)[C@H](Cc3ccc(OCC(=O)O)cc3)NC(=O)CSC[C@@H](C(=O)NCCCCCCCCCCC(=O)O)NC(=O)[C@H](CO)NC(=O)[C@H](C(C)C)NC(=O)[C@H](CC3CCCCC3)NC(=O)[C@H](CCN)NC(=O)[C@@H](CC(C)C)NC(=O)[C@H](C)N(C)C(=O)[C@H](Cc3ccc(OCC(=O)O)cc3)NC(=O)[C@H](Cc3ccc(-c4ccccc4)cc3)NC(=O)[C@H](CC(C)C)NC2=O)c1` [Example 2252] ({CH2CO}-Y(Carboxymethyl)HD[Phe(3-Me)]L[Bip]Y(Carboxymethyl)[NMeA][dL][Dab][Cha]VSC[Aun]-OH; thioether N-14) was 127 nM; that for `CC(=O)COc1ccc(C[C@@H]2NC(=O)[C@H](CCCNC(=N)N)NC(=O)CSC[C@@H](C(=O)N[C@@H](CCN)C(=O)NCCCCCCCCCCC(=O)O)NC(=O)[C@H](C(C)O)NC(=O)[C@H](C(C)C)NC(=O)[C@H](CC3CCCCC3)NC(=O)[C@H](CCN)NC(=O)[C@@H](CC(C)C)NC(=O)[C@H](C)N(C)C(=O)[C@H](Cc3ccc(OCC(=O)O)cc3)NC(=O)[C@H](Cc3ccc(-c4ccccc4)cc3)NC(=O)[C@H](CC(C)C)NC(=O)[C@H](Cc3cccc(C)c3)NC(=O)[C@H](CC(=O)O)NC2=O)cc1` (stereo partly drawn) [Example 2253] ({CH2CO}-RY(CH2COCH2)D[Phe(3-Me)]L[Bip]Y(Carboxymethyl)[NMeA][dL][Dab][Cha]V[Thr(3ξ)]C[Dab][Aun]-OH; thioether N-14) was 11.9 nM.

What is called IC50 is the point on the concentration scale where inhibition reaches its midpoint.
